Assay results as given in ChEMBL document CHEMBL3885881, “DrugMatrix”.

Species on record: Rattus norvegicus
Test: DrugMatrix - Regimen: Daily Repeat
Format: toxicity, organism-based, Sprague-Dawley
Design: regimen Daily Repeat, gender Male, age 6-8 weeks
Settings: in vivo, po, route oral GAVAGE, vehicle .5 % CMC; for ABSOLUTE BASOPHIL / ABSOLUTE EOSINOPHIL / ABSOLUTE LYMPHOCYTE / ABSOLUTE MONOCYTE / ABSOLUTE SEGMENTED NEUTROPHIL / BASOPHIL / EOSINOPHIL / ERYTHROCYTE COUNT / HEMATOCRIT / HEMOGLOBIN / LEUKOCYTE COUNT / LYMPHOCYTE / MEAN CORPUSCULAR HEMOGLOBIN / MEAN CORPUSCULAR HEMOGLOBIN CONCENTRATION / MEAN CORPUSCULAR VOLUME / MONOCYTE / NEUTROPHIL / NUCLEATED RED BLOOD CELLS / PLATELET COUNT: tissue Blood; for ALANINE AMINOTRANSFERASE / ALBUMIN / ALKALINE PHOSPHATASE / ASPARTATE AMINOTRANSFERASE / BLOOD UREA NITROGEN / CARBON DIOXIDE / CHLORIDE / CHOLESTEROL / CREATINE PHOSPHOKINASE / CREATININE / GLUCOSE / LACTATE DEHYDROGENASE / LIPASE / PHOSPHORUS / POTASSIUM / SODIUM / TOTAL BILIRUBIN / TOTAL PROTEIN / URIC ACID: tissue Plasma
[1] = 10 mg/kg, 72 h, dose level Low, time 3 day
[2] = 10 mg/kg, 120 h, dose level Low, time 5 day
[3] = 1500 mg/kg, 72 h, dose level High, time 3 day
[4] = 1500 mg/kg, 120 h, dose level High, time 5 day

Cc1ccc(S(=O)(=O)NC(=O)NN2CC3CCCC3C2)cc1 (configuration not stated) [GLICLAZIDE]
ABSOLUTE BASOPHIL [1]: 0 CELLS/uL | ABSOLUTE EOSINOPHIL [1]: 0 CELLS/uL | ABSOLUTE LYMPHOCYTE [1]: 14055.67 CELLS/uL | ABSOLUTE MONOCYTE [1]: 174.33 CELLS/uL | ABSOLUTE SEGMENTED NEUTROPHIL [1]: 3203.33 CELLS/uL | BASOPHIL [1]: 0% | EOSINOPHIL [1]: 0% | ERYTHROCYTE COUNT [1]: 5.24 x10E6/uL | HEMATOCRIT [1]: 35.87% | HEMOGLOBIN [1]: 13.1 G/DL | LEUKOCYTE COUNT [1]: 17.43 x10E3/uL | LYMPHOCYTE [1]: 80.33% | MEAN CORPUSCULAR HEMOGLOBIN [1]: 25.37 pg | MEAN CORPUSCULAR HEMOGLOBIN CONCENTRATION [1]: 36.67 G/DL | MEAN CORPUSCULAR VOLUME [1]: 70.43 fL | MONOCYTE [1]: 1% | NEUTROPHIL [1]: 18.67% | NUCLEATED RED BLOOD CELLS [1]: 7 /100WBC | PLATELET COUNT [1]: 1164.33 x10E3/uL | ALANINE AMINOTRANSFERASE [1]: 49.67 u/L | ALBUMIN [1]: 4.1 G/DL | ALKALINE PHOSPHATASE [1]: 346.33 u/L | ASPARTATE AMINOTRANSFERASE [1]: 96.67 u/L | BLOOD UREA NITROGEN [1]: 16 mg/dL | CARBON DIOXIDE [1]: 25 mmol/L | CHLORIDE [1]: 100.33 MEQ/L | CHOLESTEROL [1]: 66.67 mg/dL | CREATINE PHOSPHOKINASE [1]: 653 u/L | CREATININE [1]: 0.19 mg/dL | GLUCOSE [1]: 179.33 mg/dL | LACTATE DEHYDROGENASE [1]: 157.33 u/L | LIPASE [1]: 10 u/L | PHOSPHORUS [1]: 13.27 mg/dL | POTASSIUM [1]: 6.4 MEQ/L | SODIUM [1]: 142.3 MEQ/L | TOTAL BILIRUBIN [1]: 0.27 mg/dL | TOTAL PROTEIN [1]: 5.77 G/DL | URIC ACID [1]: 2.23 mg/dL | ABSOLUTE BASOPHIL [2]: 0 CELLS/uL | ABSOLUTE EOSINOPHIL [2]: 0 CELLS/uL | ABSOLUTE LYMPHOCYTE [2]: 12400.33 CELLS/uL | ABSOLUTE MONOCYTE [2]: 0 CELLS/uL | ABSOLUTE SEGMENTED NEUTROPHIL [2]: 2133 CELLS/uL | BASOPHIL [2]: 0% | EOSINOPHIL [2]: 0% | ERYTHROCYTE COUNT [2]: 5.84 x10E6/uL | HEMATOCRIT [2]: 35.33% | HEMOGLOBIN [2]: 14.07 G/DL | LEUKOCYTE COUNT [2]: 14.53 x10E3/uL | LYMPHOCYTE [2]: 86% | MEAN CORPUSCULAR HEMOGLOBIN [2]: 24.13 pg | MEAN CORPUSCULAR HEMOGLOBIN CONCENTRATION [2]: 39.8 G/DL | MEAN CORPUSCULAR VOLUME [2]: 60.6 fL | MONOCYTE [2]: 0% | NEUTROPHIL [2]: 14% | NUCLEATED RED BLOOD CELLS [2]: 0 /100WBC | PLATELET COUNT [2]: 1074.33 x10E3/uL | ALANINE AMINOTRANSFERASE [2]: 49 u/L | ALBUMIN [2]: 4.23 G/DL | ALKALINE PHOSPHATASE [2]: 441 u/L | ASPARTATE AMINOTRANSFERASE [2]: 113.67 u/L | BLOOD UREA NITROGEN [2]: 15.33 mg/dL | CARBON DIOXIDE [2]: 25 mmol/L | CHLORIDE [2]: 101.33 MEQ/L | CHOLESTEROL [2]: 63.33 mg/dL | CREATINE PHOSPHOKINASE [2]: 738.33 u/L | CREATININE [2]: 0.19 mg/dL | GLUCOSE [2]: 153.67 mg/dL | LACTATE DEHYDROGENASE [2]: 958 u/L | LIPASE [2]: 9 u/L | PHOSPHORUS [2]: 11.2 mg/dL | POTASSIUM [2]: 6.16 MEQ/L | SODIUM [2]: 141.57 MEQ/L | TOTAL BILIRUBIN [2]: 0.2 mg/dL | TOTAL PROTEIN [2]: 5.97 G/DL | URIC ACID [2]: 1.43 mg/dL | ABSOLUTE BASOPHIL [3]: 0 CELLS/uL | ABSOLUTE EOSINOPHIL [3]: 66 CELLS/uL | ABSOLUTE LYMPHOCYTE [3]: 14884.33 CELLS/uL | ABSOLUTE MONOCYTE [3]: 365.67 CELLS/uL | ABSOLUTE SEGMENTED NEUTROPHIL [3]: 2117.33 CELLS/uL | BASOPHIL [3]: 0% | EOSINOPHIL [3]: 0.33% | ERYTHROCYTE COUNT [3]: 6.45 x10E6/uL | HEMATOCRIT [3]: 39.57% | HEMOGLOBIN [3]: 15.77 G/DL | LEUKOCYTE COUNT [3]: 17.43 x10E3/uL | LYMPHOCYTE [3]: 85.33% | MEAN CORPUSCULAR HEMOGLOBIN [3]: 24.4 pg | MEAN CORPUSCULAR HEMOGLOBIN CONCENTRATION [3]: 39.83 G/DL | MEAN CORPUSCULAR VOLUME [3]: 61.27 fL | MONOCYTE [3]: 2% | NEUTROPHIL [3]: 12.33% | NUCLEATED RED BLOOD CELLS [3]: 0 /100WBC | PLATELET COUNT [3]: 1204.33 x10E3/uL | ALANINE AMINOTRANSFERASE [3]: 29 u/L | ALBUMIN [3]: 4.03 G/DL | ALKALINE PHOSPHATASE [3]: 337.33 u/L | ASPARTATE AMINOTRANSFERASE [3]: 85.67 u/L | BLOOD UREA NITROGEN [3]: 17.33 mg/dL | CARBON DIOXIDE [3]: 26.33 mmol/L | CHLORIDE [3]: 100.67 MEQ/L | CHOLESTEROL [3]: 39.33 mg/dL | CREATINE PHOSPHOKINASE [3]: 319 u/L | CREATININE [3]: 0.14 mg/dL | GLUCOSE [3]: 104.67 mg/dL | LACTATE DEHYDROGENASE [3]: 118.33 u/L | LIPASE [3]: 8.67 u/L | PHOSPHORUS [3]: 11.03 mg/dL | POTASSIUM [3]: 6.27 MEQ/L | SODIUM [3]: 141.67 MEQ/L | TOTAL BILIRUBIN [3]: 0.13 mg/dL | TOTAL PROTEIN [3]: 5.43 G/DL | URIC ACID [3]: 2.57 mg/dL | ABSOLUTE BASOPHIL [4]: 0 CELLS/uL | ABSOLUTE EOSINOPHIL [4]: 0 CELLS/uL | ABSOLUTE LYMPHOCYTE [4]: 11101.33 CELLS/uL | ABSOLUTE MONOCYTE [4]: 80.33 CELLS/uL | ABSOLUTE SEGMENTED NEUTROPHIL [4]: 1151.67 CELLS/uL | BASOPHIL [4]: 0% | EOSINOPHIL [4]: 0% | ERYTHROCYTE COUNT [4]: 6.29 x10E6/uL | HEMATOCRIT [4]: 37% | HEMOGLOBIN [4]: 14.7 G/DL | LEUKOCYTE COUNT [4]: 12.33 x10E3/uL | LYMPHOCYTE [4]: 90% | MEAN CORPUSCULAR HEMOGLOBIN [4]: 23.4 pg | MEAN CORPUSCULAR HEMOGLOBIN CONCENTRATION [4]: 39.8 G/DL | MEAN CORPUSCULAR VOLUME [4]: 58.83 fL | MONOCYTE [4]: 0.67% | NEUTROPHIL [4]: 9.33% | NUCLEATED RED BLOOD CELLS [4]: 0 /100WBC | PLATELET COUNT [4]: 1131.67 x10E3/uL | ALANINE AMINOTRANSFERASE [4]: 46 u/L | ALBUMIN [4]: 4.17 G/DL | ALKALINE PHOSPHATASE [4]: 318 u/L | ASPARTATE AMINOTRANSFERASE [4]: 93 u/L | BLOOD UREA NITROGEN [4]: 21.33 mg/dL | CARBON DIOXIDE [4]: 23.33 mmol/L | CHLORIDE [4]: 103.67 MEQ/L | CHOLESTEROL [4]: 44.67 mg/dL | CREATINE PHOSPHOKINASE [4]: 248.33 u/L | CREATININE [4]: 0.18 mg/dL | GLUCOSE [4]: 101.67 mg/dL | LACTATE DEHYDROGENASE [4]: 168.33 u/L | LIPASE [4]: 10 u/L | PHOSPHORUS [4]: 10.43 mg/dL | POTASSIUM [4]: 6.21 MEQ/L | SODIUM [4]: 144.47 MEQ/L | TOTAL BILIRUBIN [4]: 0.1 mg/dL | TOTAL PROTEIN [4]: 5.7 G/DL | URIC ACID [4]: 1.7 mg/dL
